Results published in ChEMBL document CHEMBL1130223 (J Med Chem, 1997).
The source made the active and inactive calls. The rule behind the calls is not given here.

What was measured:
[1] = biological target: T1, Serotonin 3 (5-HT3) receptor (Rattus norvegicus, UniProt P35563+Q9JJ16); experiment: Inhibition of [3H]BRL-43694 binding to 5-hydroxytryptamine 3 receptor of rat cortical homogenate.
T1 sequence (P35563 whole entry): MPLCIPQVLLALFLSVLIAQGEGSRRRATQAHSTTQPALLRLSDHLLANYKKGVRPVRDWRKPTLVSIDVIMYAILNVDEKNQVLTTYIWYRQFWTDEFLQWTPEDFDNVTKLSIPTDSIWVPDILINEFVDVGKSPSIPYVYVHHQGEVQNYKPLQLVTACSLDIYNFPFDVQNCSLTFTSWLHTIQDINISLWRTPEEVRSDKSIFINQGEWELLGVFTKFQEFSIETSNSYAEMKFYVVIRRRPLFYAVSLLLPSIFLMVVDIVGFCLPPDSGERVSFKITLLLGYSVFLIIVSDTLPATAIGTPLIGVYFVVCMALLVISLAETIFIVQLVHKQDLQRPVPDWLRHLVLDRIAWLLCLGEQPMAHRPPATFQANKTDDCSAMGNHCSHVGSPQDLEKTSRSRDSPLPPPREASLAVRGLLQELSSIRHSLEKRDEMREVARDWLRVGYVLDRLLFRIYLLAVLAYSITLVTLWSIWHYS
T1 sequence (Q9JJ16 whole entry): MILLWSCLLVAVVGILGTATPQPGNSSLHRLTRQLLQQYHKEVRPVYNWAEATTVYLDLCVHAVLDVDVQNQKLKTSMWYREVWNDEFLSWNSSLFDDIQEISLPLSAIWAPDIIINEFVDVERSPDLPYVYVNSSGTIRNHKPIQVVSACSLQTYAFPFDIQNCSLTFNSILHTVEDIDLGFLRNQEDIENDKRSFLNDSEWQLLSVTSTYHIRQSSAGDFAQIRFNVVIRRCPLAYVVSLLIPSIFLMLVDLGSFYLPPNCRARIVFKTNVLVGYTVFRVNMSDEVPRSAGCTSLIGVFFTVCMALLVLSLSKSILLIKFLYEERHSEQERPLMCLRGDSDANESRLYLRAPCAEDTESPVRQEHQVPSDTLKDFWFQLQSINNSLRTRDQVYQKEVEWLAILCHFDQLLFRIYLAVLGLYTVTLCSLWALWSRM

NG108-15 [2] = experiment: Effective concentration for uptake of [14C]guanidinium on NG108-15 cells; assay type: functional, cell-based; conditions: Murinae
NG108-15 [3] = experiment: Agonist/antagonist activity by observing the uptake of [14C]guanidinium, on the neuroblastoma-glioma hybrid NG108-15 cells; pure agonist; assay type: functional, cell-based; conditions: filed as agonist
[4] = biological target: T2, Serotonin 3 (5-HT3) receptor (Rattus norvegicus) (UniProt P35563+Q9JJ16); experiment: The stimulation of cardiac 5-HT3 receptors evaluated by using von Bezold-Jarisch reflex test in urethane-anesthetized rats; Partial agonist; assay type: functional; conditions: filed as partial agonist
[5] = biological target: T2, Serotonin 3 (5-HT3) receptor (Rattus norvegicus); experiment: Dose required to stimulate cardiac 5-HT3 receptors evaluated by using von Bezold-Jarisch reflex test in urethane-anesthetized rats after intravenous administration; assay type: functional, organism-based
[6] = biological target: T1, Serotonin 3 (5-HT3) receptor; experiment: Inhibition of [3H]BRL-43694 binding to 5-hydroxytryptamine 3 receptor of rat cortical homogenate; Not active at 10000 nm
NG108-15 [7] = experiment: Agonist/antagonist activity by observing the uptake of [14C]guanidinium, on the neuroblastoma-glioma hybrid NG108-15 cells; Not active at 10000 nm; assay type: functional, cell-based
[8] = biological target: T2, Serotonin 3 (5-HT3) receptor (Rattus norvegicus); experiment: The stimulation of cardiac 5-HT3 receptors evaluated by using von Bezold-Jarisch reflex test in urethane-anesthetized rats; partial agonist; assay type: functional; conditions: filed as partial agonist
[9] = biological target: T3, 5-hydroxytryptamine receptor 1A (Rattus norvegicus, UniProt P19327); experiment: Inhibition of radiolabeled [3H]-8-OH-DPAT ligand binding to 5-hydroxytryptamine 1A receptor
T3 sequence (P19327 whole entry): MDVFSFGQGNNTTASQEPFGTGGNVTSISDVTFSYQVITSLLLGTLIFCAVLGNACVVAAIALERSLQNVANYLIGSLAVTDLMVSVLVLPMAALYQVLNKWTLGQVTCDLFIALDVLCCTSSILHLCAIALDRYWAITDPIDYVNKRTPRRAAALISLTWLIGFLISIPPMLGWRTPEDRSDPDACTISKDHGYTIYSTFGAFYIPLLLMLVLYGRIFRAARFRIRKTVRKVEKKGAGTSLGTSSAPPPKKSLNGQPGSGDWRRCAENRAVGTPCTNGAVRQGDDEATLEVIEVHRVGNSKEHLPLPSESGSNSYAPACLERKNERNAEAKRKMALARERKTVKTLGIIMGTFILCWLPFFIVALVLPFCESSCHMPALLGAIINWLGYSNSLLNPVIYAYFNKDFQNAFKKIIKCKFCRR

[10] = biological target: 5-hydroxytryptamine receptor 1B (Rattus norvegicus, UniProt P28564); experiment: Inhibition of radiolabeled [3H]-5-HT ligand binding to 5-hydroxytryptamine 1B receptor
[11] = biological target: 5-hydroxytryptamine receptor 2A (Rattus norvegicus, UniProt P14842); experiment: Inhibition of radiolabeled [3H]-Ketanserin ligand binding to 5-hydroxytryptamine 2A receptor
[12] = biological target: T4, 5-hydroxytryptamine receptor 2C (Rattus norvegicus, UniProt P08909); experiment: Inhibition of radiolabeled [3H]mesulergine ligand binding to 5-hydroxytryptamine 2C receptor
T4 sequence (P08909 whole entry): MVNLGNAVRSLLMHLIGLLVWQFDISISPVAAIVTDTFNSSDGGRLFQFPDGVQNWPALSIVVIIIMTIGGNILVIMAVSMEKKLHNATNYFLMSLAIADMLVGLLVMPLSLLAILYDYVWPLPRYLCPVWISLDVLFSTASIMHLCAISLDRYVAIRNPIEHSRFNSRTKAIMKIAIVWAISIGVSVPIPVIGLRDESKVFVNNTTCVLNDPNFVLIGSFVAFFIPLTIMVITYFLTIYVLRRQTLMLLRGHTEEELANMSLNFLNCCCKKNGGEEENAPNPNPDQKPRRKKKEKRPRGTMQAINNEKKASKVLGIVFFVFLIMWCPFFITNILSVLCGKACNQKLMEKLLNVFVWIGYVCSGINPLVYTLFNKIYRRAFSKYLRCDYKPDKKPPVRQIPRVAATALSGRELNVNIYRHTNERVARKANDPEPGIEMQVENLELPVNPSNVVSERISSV

[13] = biological target: 5-hydroxytryptamine receptor 4 (Rattus norvegicus, UniProt Q62758); experiment: Inhibition of radiolabeled [3H]GR-113808 ligand binding to 5-hydroxytryptamine 4 receptor
[14] = biological target: T2, Serotonin 3 (5-HT3) receptor (Rattus norvegicus); experiment: The stimulation of cardiac 5-HT3 receptors evaluated by using von Bezold-Jarisch reflex test in urethane-anesthetized rats; pure antagonist; assay type: functional; conditions: filed as antagonist
Rattus norvegicus = species: Rattus norvegicus; experiment: Inhibitory activity for 5-HT uptake was determined using [3H]- Citalopram; assay type: functional
[15] = Potency to cross blood-brain barrier was assessed; assay type: functional
[16] = biological target: T2, Serotonin 3 (5-HT3) receptor (Rattus norvegicus); experiment: The stimulation of cardiac 5-HT3 receptors evaluated by using von Bezold-Jarisch reflex test in urethane-anesthetized rats; pure agonist; assay type: functional; conditions: filed as agonist
[17] = biological target: T4, 5-hydroxytryptamine receptor 2C; experiment: Inhibition of radiolabeled [3H]-Ketanserin ligand binding to 5-hydroxytryptamine 2C receptor
[18] = biological target: T1, Serotonin 3 (5-HT3) receptor; experiment: Inhibition of radiolabeled [3H]-Zacopride ligand binding to 5-hydroxytryptamine 3 receptor; assay type: protein-complex assay
[19] = biological target: T2, Serotonin 3 (5-HT3) receptor (Rattus norvegicus); experiment: Dose required to stimulate cardiac 5-HT3 receptors evaluated by using von Bezold-Jarisch reflex test in urethane-anesthetized rats; assay type: functional
[20] = biological target: T2, Serotonin 3 (5-HT3) receptor (Rattus norvegicus); experiment: The stimulation of cardiac 5-HT3 receptors evaluated by using von Bezold-Jarisch reflex test inurethane-anesthetized rats; Pure Antagonist; assay type: functional; conditions: filed as antagonist

Chain of 5-hydroxytryptamine receptor 1B (P28564 whole entry): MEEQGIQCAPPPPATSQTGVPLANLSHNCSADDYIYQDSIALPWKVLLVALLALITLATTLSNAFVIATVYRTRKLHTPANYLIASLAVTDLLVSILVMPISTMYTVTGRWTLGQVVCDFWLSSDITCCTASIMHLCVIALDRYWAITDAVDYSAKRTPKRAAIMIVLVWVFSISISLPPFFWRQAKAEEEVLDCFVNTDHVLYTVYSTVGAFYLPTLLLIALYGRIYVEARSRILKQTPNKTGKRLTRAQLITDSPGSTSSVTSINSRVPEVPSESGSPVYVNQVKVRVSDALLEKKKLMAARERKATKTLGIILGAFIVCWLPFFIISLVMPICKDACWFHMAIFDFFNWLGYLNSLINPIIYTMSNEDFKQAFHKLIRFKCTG
Chain of 5-hydroxytryptamine receptor 2A (P14842 whole entry): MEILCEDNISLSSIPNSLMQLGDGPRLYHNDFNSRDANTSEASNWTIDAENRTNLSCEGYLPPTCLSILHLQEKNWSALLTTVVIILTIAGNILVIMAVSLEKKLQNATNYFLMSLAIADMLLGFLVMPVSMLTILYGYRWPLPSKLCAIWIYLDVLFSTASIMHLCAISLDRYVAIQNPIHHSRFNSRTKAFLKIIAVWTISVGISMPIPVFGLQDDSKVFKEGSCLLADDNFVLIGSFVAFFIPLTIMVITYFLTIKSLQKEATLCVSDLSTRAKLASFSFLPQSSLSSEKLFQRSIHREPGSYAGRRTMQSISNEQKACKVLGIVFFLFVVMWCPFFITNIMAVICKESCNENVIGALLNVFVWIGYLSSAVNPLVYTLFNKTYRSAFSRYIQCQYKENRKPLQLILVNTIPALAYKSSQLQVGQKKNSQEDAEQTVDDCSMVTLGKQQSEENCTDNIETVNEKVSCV
Chain of 5-hydroxytryptamine receptor 4 (Q62758 whole entry): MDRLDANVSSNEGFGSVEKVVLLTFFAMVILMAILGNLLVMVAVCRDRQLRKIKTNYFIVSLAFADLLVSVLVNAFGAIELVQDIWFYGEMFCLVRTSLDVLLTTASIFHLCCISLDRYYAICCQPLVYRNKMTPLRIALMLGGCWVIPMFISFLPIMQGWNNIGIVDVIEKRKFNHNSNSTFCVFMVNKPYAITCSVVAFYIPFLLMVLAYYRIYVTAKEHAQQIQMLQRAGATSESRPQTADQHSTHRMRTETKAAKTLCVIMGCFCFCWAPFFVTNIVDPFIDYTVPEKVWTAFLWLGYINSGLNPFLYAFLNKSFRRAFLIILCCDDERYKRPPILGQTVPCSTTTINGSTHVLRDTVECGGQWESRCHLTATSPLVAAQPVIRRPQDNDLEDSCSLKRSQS

Structure (SMILES)	IC50 [1] [nM]	EC50 (NG108-15 [2]) [nM]	Efficacy (NG108-15 [3])	ID50 [5] [mg/kg]	IC50 (Rattus norvegicus) [nM]	other results
C=CCN1CCN(c2nc3cccc(F)c3n3cccc23)CC1	28	30	Agonist	0.075		Behavior [4]: Partial agonist
CN1CCN(c2nc3cc(C(F)(F)F)ccc3n3cccc23)CC1						IC50 [6]: Not Active; Efficacy (NG108-15 [7]): inactive
C=CCN1CCN(c2nc3cc(F)ccc3n3cccc23)CC1	22	76	Agonist	0.1		Behavior [8]: Partial agonist
Fc1ccc2c(c1)nc(N1CCNCC1)c1cccn12	5.4	3.5	Agonist	0.01	203	IC50 [9]: 151 nM; IC50 [10]: 167 nM; IC50 [11]: 489 nM; IC50 [12]: 2800 nM; IC50 [13]: > 10000 nM; Behavior [14]: Antagonist; Ratio [15]: 37.5
C=CCN1CCN(c2nc3ccccc3n3cccc23)CC1	11	8.2	Agonist	0.18		Behavior [8]: Partial agonist
CN1CCN(c2cnc3ccccc3n2)CC1	22	510	Agonist	0.06		Behavior [16]: Agonist
CCC(CC)NC(=O)[C@@H]1C=C2c3cccc4c3c(cn4C)C[C@H]2N(C)C1 [METHSERGIDE]						IC50 [17]: 3.1 nM
c1ccc2nc(N3CCNCC3)ccc2c1 [QUIPAZINE]	6.2	25	Agonist		204	IC50 [10]: 380 nM; IC50 [11]: 1400 nM; IC50 [12]: 470 nM; IC50 [13]: > 10000 nM
CCCN1CCN(c2nc3ccccc3n3cccc23)CC1	51	8.5	Agonist	0.24		Behavior [4]: Partial agonist
CCCN1CCN(c2nc3cccc(F)c3n3cccc23)CC1	82	73	Agonist	0.3		Behavior [4]: Partial agonist
CCCN1CCN(c2nc3cc(F)ccc3n3cccc23)CC1	88	580	Agonist	0.2		Behavior [8]: Partial agonist
CN1CCN(c2nc3c(F)cccc3n3cccc23)CC1	9.5	4.7	Agonist	0.12		Behavior [4]: Partial agonist
CN1CCN(c2nc3cccc(F)c3n3cccc23)CC1	0.44	6.5	Agonist	0.12		Behavior [4]: Partial agonist
CN1CCN(c2nc3ccccc3n3cccc23)CC1		10	Agonist		214	IC50 [9]: 89 nM; IC50 [10]: 232 nM; IC50 [11]: 43 nM; IC50 [12]: 780 nM; IC50 [13]: > 10000 nM
NCCc1c[nH]c2ccc(O)cc12 [SEROTONIN]					369	
Cc1[nH]c2ccc(O)cc2c1CCN	779					
CN1C[C@@H](NS(=O)(=O)N(C)C)C[C@@H]2c3cccc4c3c(cn4C)C[C@H]21 [MESULERGINE]						IC50 [18]: 2.13 nM
CCN1CCN(c2nc3ccccc3n3cccc23)CC1	9	8	Agonist	0.1		Behavior [14]: Antagonist
CN1CCN(c2nc3cc(F)ccc3n3cccc23)CC1	0.81	3	Agonist		232	IC50 [9]: 138 nM; IC50 [10]: 371 nM; IC50 [11]: 124 nM; IC50 [12]: 413 nM; IC50 [13]: > 10000 nM; ID50 [19]: 0.6 mg/kg; Ratio [15]: 17.5; Behavior [20]: Antagonist
Fc1cccc2nc(N3CCNCC3)c3cccn3c12	3.9	98	Agonist	0.07	1130	IC50 [9]: 268 nM; IC50 [10]: 106 nM; IC50 [11]: 761 nM; IC50 [12]: 784 nM; IC50 [13]: > 10000 nM; Behavior [14]: Antagonist
